Experimental data taken from patent US12624044B2, “SMARCA degraders and uses thereof” (Kymera Therapeutics, Inc., priority 2019, dated 2026).

Molecular target: SMARCA2 (Homo sapiens, UniProt P51531)
Experiment: MSD SMARCA2 degradation in A549 cell line
Format: cell-based
Conditions: 24 h; for Dmax: A549, A549 cells; for DC50: A549 cells, read-out: SMARCA2 MSD A549 degradation 24 h: Average external-Abs DC50
Procedure: Cells were seeded into 96-well plates (A549 cells: 2×10^4 cells/well/100 ul media) abd incubated overnight. The next day, 200 nl compound were added into the intermediate plate with Echo (Labcyte 550) from source plate containing a 3-fold serial dilution from top concentration of 1 mM. The culture medium was changed with 80 ul of fresh medium and 80 ul of 2× compound solution was added into the well to make a final concentration of 1000 nM, 333.3 nM, 111.1 nM, 37.04 nM, 12.35 nM, 4.115 nM, 1.372 nM, 0.457 nM, 0.152 nM and 0 nM (DMSO). The wells were mixed and then incubated for 24 hours. The media was aspirated from the cultures and 60 ul pre-chilled PIPA lysis buffer (Boston BioProducts BP-115D) with protease/phosphatase inhibitor (Roche 05892791001/Roche 04906837001) was added into the well to lyze the cells for 20 minutes at 4° C. The MSD plate (L15XA) was coated with 40 ul cell lysate and incubated at 4° C. overnight. The next day, the plate was washed three times with TBST (CST #9997S), 150 ul/well. The MSD plates was blocked with 150 ul blocking buffer per well and shaked for 1 hr at RT, 600 rpm. The blocking buffer was 3% Blocker A (MSD, R93BA-4) in TBST. The MSD plate was washed three times with 150 ul/well of TBST and 25 ul/well of detection antibody (Rabbit anti-SMARCA2/BRM antibody, 100 μg/ml, ab223735) was added at final concentration of 1 ug/ml diluted in 1% Blocking buffer and shaken for 1 hour at RT, 600 rpm. The MSD plate was washed three times with 150 ul/well of TBST and 25 ul/well of SULFO-TAG anti-rabbit antibody (MSD, R32AB-1) was added at final concentration of 1 ug/ml diluted in 1% Blocking buffer and shaken for 1 hour at RT, 600 rpm. The MSD plate was washed three times with 150 ul/well of TBST and 150 ul/well of 2×MSD reading buffer diluted from 4× (MSD, R92TC-2) with water was added. Lastly, the MSD instrument was read.
The letter codes for the percentage of SMARCA2 degradation after 24 hours (Dmax %) include: A (>90% degradation), B (>70-90% degradation), C (50-70% degradation), and D (<50% degradation).

Chain of SMARCA2 (P51531 whole entry): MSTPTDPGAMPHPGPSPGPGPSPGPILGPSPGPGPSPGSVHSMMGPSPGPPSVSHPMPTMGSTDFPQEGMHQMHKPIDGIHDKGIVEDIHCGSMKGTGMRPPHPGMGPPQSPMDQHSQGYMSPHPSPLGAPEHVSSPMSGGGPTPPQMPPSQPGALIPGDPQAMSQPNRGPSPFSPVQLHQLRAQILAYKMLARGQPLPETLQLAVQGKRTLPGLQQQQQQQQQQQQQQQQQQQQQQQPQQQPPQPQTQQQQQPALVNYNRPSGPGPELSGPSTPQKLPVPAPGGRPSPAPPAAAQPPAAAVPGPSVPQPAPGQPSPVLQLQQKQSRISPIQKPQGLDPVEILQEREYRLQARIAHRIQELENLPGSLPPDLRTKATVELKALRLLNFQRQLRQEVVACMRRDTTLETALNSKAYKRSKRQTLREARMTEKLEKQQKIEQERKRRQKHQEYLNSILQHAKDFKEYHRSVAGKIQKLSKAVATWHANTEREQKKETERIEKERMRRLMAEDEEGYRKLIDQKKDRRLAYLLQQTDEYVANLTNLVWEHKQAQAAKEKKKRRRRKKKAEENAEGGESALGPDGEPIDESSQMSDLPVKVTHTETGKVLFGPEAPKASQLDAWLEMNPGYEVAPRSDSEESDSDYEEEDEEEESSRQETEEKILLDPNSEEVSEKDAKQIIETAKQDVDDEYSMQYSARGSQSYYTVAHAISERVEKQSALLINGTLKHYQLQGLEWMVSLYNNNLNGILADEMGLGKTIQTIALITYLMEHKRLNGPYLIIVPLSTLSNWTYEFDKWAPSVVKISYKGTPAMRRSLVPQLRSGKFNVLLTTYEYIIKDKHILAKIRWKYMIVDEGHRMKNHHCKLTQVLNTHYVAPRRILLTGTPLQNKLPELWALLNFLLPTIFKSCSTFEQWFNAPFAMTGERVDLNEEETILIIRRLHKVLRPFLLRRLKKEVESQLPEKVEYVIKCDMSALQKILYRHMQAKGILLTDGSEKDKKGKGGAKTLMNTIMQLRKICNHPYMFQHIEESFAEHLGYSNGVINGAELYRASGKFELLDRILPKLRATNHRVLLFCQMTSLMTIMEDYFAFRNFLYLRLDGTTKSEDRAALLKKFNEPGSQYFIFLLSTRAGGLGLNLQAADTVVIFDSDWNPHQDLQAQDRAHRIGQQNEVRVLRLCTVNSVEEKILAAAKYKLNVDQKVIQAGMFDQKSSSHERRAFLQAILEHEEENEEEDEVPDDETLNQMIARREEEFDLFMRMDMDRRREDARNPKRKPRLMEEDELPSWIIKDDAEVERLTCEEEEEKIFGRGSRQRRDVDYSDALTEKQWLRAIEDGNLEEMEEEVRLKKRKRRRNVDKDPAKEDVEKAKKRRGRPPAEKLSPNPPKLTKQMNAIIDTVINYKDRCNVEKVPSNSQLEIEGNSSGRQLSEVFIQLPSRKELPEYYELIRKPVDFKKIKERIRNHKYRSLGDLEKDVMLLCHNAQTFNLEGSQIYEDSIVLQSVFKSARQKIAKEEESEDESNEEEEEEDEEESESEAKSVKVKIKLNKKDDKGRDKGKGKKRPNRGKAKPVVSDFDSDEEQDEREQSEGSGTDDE

Row | Dmax | DC50 | SMILES
1 | 50 to 70% | 501 to 1000 nM | Cc1ncsc1-c1ccc(CNC(=O)[C@@H]2C[C@@H](O)CN2C(=O)[C@@H](NC(=O)C2CC3(CCN(CCN4CCC(Cn5cc(-c6cc(-c7ccccc7O)nnc6N)cn5)CC4)CC3)C2)C(C)(C)C)cc1 [I-381]
2 | < 50% | > 1000 nM | Cn1c(=O)n(C2CCC(=O)NC2=O)c2cccc(CCCOC3CCN(Cc4ccc(C#Cc5cc(NC(=O)Nc6cc(F)ncc6CO)ccn5)cc4)CC3)c21 (stereo not shown) [I-307]
3 | < 50% | > 1000 nM | Cc1ncsc1-c1ccc(CNC(=O)[C@@H]2C[C@@H](O)CN2C(=O)[C@@H](NC(=O)CCCCCNCc2ccc(C#Cc3cc(NC(=O)Nc4cc(F)ncc4CO)ccn3)cc2)C(C)(C)C)cc1 [I-493]
4 | < 50% | > 1000 nM | Cc1ncsc1-c1ccc(CNC(=O)[C@@H]2C[C@@H](O)CN2C(=O)[C@@H](NC(=O)CNCc2cccc(C#Cc3cc(NC(=O)Nc4cc(F)ncc4CO)ccn3)c2)C(C)(C)C)cc1 [I-487, (2S,4R)-1-((S)-2-(2-((3-((4-(3-(2-fluoro-5-(hydroxymethyl)pyridin-4-yl)ureido)pyridin-2-yl)ethynyl)benzyl)amino)acetamido)-3,3-dimethylbutanoyl)-4-hydroxy-N-(4-(4-methylthiazol-5-yl)benzyl)pyrrolidine-2-carboxamide]
5 | < 50% | > 1000 nM | Cc1ncsc1-c1ccc(CNC(=O)[C@@H]2C[C@@H](O)CN2C(=O)[C@@H](NC(=O)CCCCCCCNCc2cccc(C#Cc3cc(NC(=O)Nc4cc(F)ncc4CO)ccn3)c2)C(C)(C)C)cc1 [I-490]
6 | < 50% | > 1000 nM | Cc1ncsc1-c1ccc(CNC(=O)[C@@H]2C[C@@H](O)CN2C(=O)[C@@H](NC(=O)CCN2CCC(Cn3cc(-c4cc(-c5ccccc5O)nnc4N)cn3)CC2)C(C)(C)C)cc1 [I-466]
7 | > 90% | 100 to 500 nM | Cc1ncsc1-c1ccc(CNC(=O)[C@@H]2C[C@@H](O)CN2C(=O)[C@@H](NC(=O)[C@H]2CC3(C[C@H](CN4CCC(n5cc(-c6cc(-c7ccccc7O)nnc6N)cn5)CC4)C3)C2)C(C)(C)C)cc1 (stereo partly shown) [I-432]
8 | < 50% | > 1000 nM | Cc1ncsc1-c1ccc(CNC(=O)[C@@H]2C[C@@H](O)CN2C(=O)[C@@H](NC(=O)CCCNCc2cccc(C#Cc3cc(NC(=O)Nc4cc(F)ncc4CO)ccn3)c2)C(C)(C)C)cc1 [I-488]
9 | < 50% | > 1000 nM | Cc1ncsc1-c1ccc(CNC(=O)[C@@H]2C[C@@H](O)CN2C(=O)[C@@H](NC(=O)CCCN2CCC(c3cccc(C#Cc4cc(NC(=O)Nc5cc(F)ncc5CO)ccn4)c3)CC2)C(C)(C)C)cc1 [I-499, (2S,4R)-1-[(2S)-2-[4-[4-[3-[2-[4-[[2-fluoro-5-(hydroxymethyl)-4-pyridyl]carbamoylamino]-2-pyridyl]ethynyl]phenyl]-1-piperidyl]butanoylamino]-3,3-dimethyl-butanoyl]-4-hydroxy-N-[[4-(4-methylthiazol-5-yl)phenyl]methyl]pyrrolidine-2-carboxamide]
10 | < 50% | > 1000 nM | Cc1ncsc1-c1ccc(CNC(=O)[C@@H]2C[C@@H](O)CN2C(=O)[C@@H](NC(=O)[C@H]2CC[C@H](N3CCC(CN4CCC(Cn5cc(-c6cc(-c7ccccc7O)nnc6N)cn5)CC4)CC3)CC2)C(C)(C)C)cc1 [I-397]
11 | 70 to 90% | 501 to 1000 nM | Cc1ncsc1-c1ccc(CNC(=O)[C@@H]2C[C@@H](O)CN2C(=O)[C@@H](NC(=O)[C@H]2CC[C@H](N3CCC(N4CCC(n5cc(-c6cc(-c7ccccc7O)nnc6N)cn5)CC4)CC3)CC2)C(C)(C)C)cc1 [I-400, (2S,4R)-1-((S)-2-((1r,4S)-4-(4-(4-(3-amino-6-(2-hydroxyphenyl)pyridazin-4-yl)-1H-pyrazol-1-yl)-[1,4′-bipiperidin]-1′-yl)cyclohexanecarboxamido)-3,3-dimethylbutanoyl)-4-hydroxy-N-(4-(4-methylthiazol-5-yl)benzyl)pyrrolidine-2-carboxamide]
12 | < 50% | > 1000 nM | Cc1ncsc1-c1ccc(CNC(=O)[C@@H]2C[C@@H](O)CN2C(=O)[C@@H](NC(=O)CCN2CCC[C@@H](Cn3cc(-c4cc(-c5ccccc5O)nnc4N)cn3)C2)C(C)(C)C)cc1 [I-470]
13 | < 50% | > 1000 nM | Cc1ncsc1-c1ccc(CNC(=O)[C@@H]2C[C@@H](O)CN2C(=O)[C@@H](NC(=O)CCCN2CCN(Cc3ccc(-c4cc(-c5ccccc5O)nnc4N)cc3)CC2)C(C)(C)C)cc1 [I-475, (2S,4R)-1-((S)-2-(4-(4-(4-(3-amino-6-(2-hydroxyphenyl)pyridazin-4-yl)benzyl)piperazin-1-yl)butanamido)-3,3-dimethylbutanoyl)-4-hydroxy-N-(4-(4-methylthiazol-5-yl)benzyl)pyrrolidine-2-carboxamide]
14 | < 50% | > 1000 nM | Cn1c(=O)n(C2CCC(=O)NC2=O)c2cccc(CN3CCC4(CCN(Cc5cccc(C#Cc6cc(NC(=O)Nc7cc(F)ncc7CO)ccn6)c5)CC4)CC3)c21 (stereo not shown) [I-319]
15 | < 50% | > 1000 nM | CN(Cc1ccc(C#Cc2cc(NC(=O)Nc3cc(F)ncc3CO)ccn2)cc1)C1CCN(Cc2cccc3c2n(C)c(=O)n3C2CCC(=O)NC2=O)CC1 (stereo not shown) [I-310]

Row | SMILES | Dmax | DC50
16 | Cc1ncsc1-c1ccc(CNC(=O)[C@@H]2C[C@@H](O)CN2C(=O)[C@@H](NC(=O)C2(F)CC2)C2CCC(N(C)CCCC#Cc3cnc(N4C5CCC4CN(c4cc(-c6ccccc6O)nnc4N)C5)nc3)CC2)cc1 (stereo partly shown) [I-517] | 50 to 70% | 501 to 1000 nM
17 | Cc1ncsc1-c1ccc(CNC(=O)[C@@H]2C[C@@H](O)CN2C(=O)[C@@H](NC(=O)[C@H]2C[C@@H](N(C)Cc3cnc(N4C5CCC4CN(c4cc(-c6ccccc6O)nnc4N)C5)nc3)C2)C(C)(C)C)cc1 [I-370] | 70 to 90% | 100 to 500 nM
18 | Cc1ncsc1-c1ccc(CNC(=O)[C@@H]2C[C@@H](O)CN2C(=O)[C@@H](NC(=O)C23CCC(CN(C)Cc4cnc(N5C6CCC5CN(c5cc(-c7ccccc7O)nnc5N)C6)nc4)(CC2)CC3)C(C)(C)C)cc1 [I-429] | 70 to 90% | 100 to 500 nM
19 | Nc1nnc(-c2ccccc2O)cc1N1CC2CCC(C1)N2c1ncc(C2CCN(CCCCCCCCCCOc3ccc(Oc4ccc(N(Cc5ccccc5)C(=O)CCl)cc4)cc3)CC2)cn1 [I-533, N-(4-(4-((10-(4-(2-(3-(3-amino-6-(2-hydroxyphenyl)pyridazin-4-yl)-3,8-diazabicyclo[3.2.1]octan-8-yl)pyrimidin-5-yl)piperidin-1-yl)decyl)oxy)phenoxy)phenyl)-N-benzyl-2-chloroacetamide] | < 50% | > 1000 nM
20 | Cc1ncsc1-c1ccc(CNC(=O)[C@@H]2C[C@@H](O)CN2C(=O)[C@@H](NC(=O)C2CC3(CCN(Cc4cnc(N5C6CCC5CN(c5cc(-c7ccccc7O)nnc5N)C6)nc4)CC3)C2)C(C)(C)C)cc1 [I-394] | > 90% | 100 to 500 nM
21 | Cc1ncsc1-c1ccc(CNC(=O)[C@@H]2C[C@@H](O)CN2C(=O)[C@@H](NC(=O)C2CC3(C2)CC(N2CCC(c4cnc(N5C6CCC5CN(c5cc(-c7ccccc7O)nnc5N)C6)nc4)CC2)C3)C(C)(C)C)cc1 (stereo partly shown) [I-414] | > 90% | 100 to 500 nM
22 | Cc1ncsc1-c1ccc(CNC(=O)[C@@H]2C[C@@H](O)CN2C(=O)[C@@H](NC(=O)C[C@H]2C[C@H](N3CCC(c4cnc(N5C6CCC5CN(c5cc(-c7ccccc7O)nnc5N)C6)nc4)CC3)C2)C(C)(C)C)cc1 [I-391] | > 90% | 100 to 500 nM
23 | Cc1ncsc1-c1ccc(CNC(=O)[C@@H]2C[C@@H](O)CN2C(=O)C(NC(=O)C2(F)CC2)C2CCC(N(C)CCCCCCCc3cnc(N4C5CCC4CN(c4cc(-c6ccccc6O)nnc4N)C5)nc3)CC2)cc1 (stereo partly drawn) [I-520, (2S,4R)-1-[2-[4-[7-[2-[3-[3-amino-6-(2-hydroxyphenyl)pyridazin-4-yl]-3,8-diazabicyclo[3.2.1]octan-8-yl]pyrimidin-5-yl]heptyl-methyl-amino]cyclohexyl]-2-[(1-fluorocyclopropanecarbonyl)amino]acetyl]-4-hydroxy-N-[[4-(4-methylthiazol-5-yl)phenyl]methyl]pyrrolidine-2-carboxamide] | < 50% | > 1000 nM
24 | COCC(=O)N1CCCc2cc(OCC(=O)NCCCN3CCC(c4cnc(N5C6CCC5CN(c5cc(-c7ccccc7O)nnc5N)C6)nc4)CC3)ccc21 [I-526] | < 50% | > 1000 nM
25 | Cc1ncsc1-c1ccc(CNC(=O)[C@@H]2C[C@@H](O)CN2C(=O)[C@@H](NC(=O)C2CC3(C2)CC(N(C)Cc2cnc(N4C5CCC4CN(c4cc(-c6ccccc6O)nnc4N)C5)nc2)C3)C(C)(C)C)cc1 (stereo partly shown) [I-416] | > 90% | 100 to 500 nM
26 | Cc1ncsc1-c1ccc(CNC(=O)[C@@H]2C[C@@H](O)CN2C(=O)[C@@H](NC(=O)[C@H]2CC[C@@H](Cc3cnc(N4C5CCC4CN(c4cc(-c6ccccc6O)nnc4N)C5)nc3)CC2)C(C)(C)C)c(C(F)(F)F)c1 [I-421] | 70 to 90% | 100 to 500 nM
